We go through six compounds from US11560582B2, “Fusion moieties and microbial hosts for protein production” (priority 2018, dated 2023).

Experiment [1] relates to A. wodanis strains. The settings on record: have been reported; cited from earlier work.
For experiment [2], the system named is A. wodanis strain 01/09/401 (11). In words: Antibiotic susceptibility testing on LB plates. Format: cell-based, Aliivibrio wodanis. To be noted: 12° C. for 2 days. The procedure:
(§1) Antibiotic susceptibility testing was done by streaking A. wodanis cells onto LB plates supplemented with 2.5% NaCl and one of the following antibiotics: Chloramphenicol (2 μg/mL, Tetracycline (10 μg/mL), Carbenicillin (100 or 200 μg/mL) or Kanamycin (50 or 100 μg/mL). A. wodanis was regarded as susceptible (score=0) if no growth was detected, as intermediate susceptible (score=0.5) if poor growth was detected, or as resistant (score=1) if good growth was detected. The tested concentrations of antibiotics were similar to the recommended working concentrations for E. coli, except Chloramphenicol that was tested at 2 μg/mL (instead of 25 μg/mL). If the test scored as “resistant”, then the test was redone using 2× of the recommended concentration. All A. wodanis strains were streaked onto same agar plate and grown at 12° C. for 2 days.

The subject of experiment [3] is A. wodanis strain 02/09/382 (8). As to the kind of experiment: Antibiotic susceptibility testing on LB plates. Format: cell-based, Aliivibrio wodanis. To be noted: 12° C. for 2 days. The procedure:
as §1

For experiment [4], the system named is A. wodanis strain 02/09/569 (7). In words: Antibiotic susceptibility testing on LB plates. Format: cell-based, Aliivibrio wodanis. To be noted: 12° C. for 2 days. The procedure: as §1
Experiment [5] has as its system A. wodanis strain 03/09/160 (37). In words: Antibiotic susceptibility testing on LB plates. Format: cell-based, Aliivibrio wodanis. The settings on record: 12° C. for 2 days. The procedure: as §1
Experiment [6] concerns A. wodanis strain 04/60/17347 (35). As to the kind of experiment: Antibiotic susceptibility testing on LB plates. To be noted: 12° C. for 2 days. Format: cell-based, Aliivibrio wodanis. As for the experimental part:
as §1

The subject of experiment [7] is A. wodanis strain 06/09/170 (27). As to the kind of experiment: Antibiotic susceptibility testing on LB plates. Format: cell-based, Aliivibrio wodanis. The settings on record: 12° C. for 2 days. The procedure:
as §1

For experiment [8], the system named is A. wodanis strain 06/09/178 (29). In words: Antibiotic susceptibility testing on LB plates. Format: cell-based, Aliivibrio wodanis. To be noted: 12° C. for 2 days. The procedure:
as §1

In experiment [9] the test system is A. wodanis strain 88/09/441 (12) (T). In words: Antibiotic susceptibility testing on LB plates. Format: cell-based, Aliivibrio wodanis. To be noted: 12° C. for 2 days. As for the experimental part: as §1
In experiment [10] the test system is A. wodanis strain 89/09/5532 (1). As to the kind of experiment: Antibiotic susceptibility testing on LB plates. To be noted: 12° C. for 2 days. Format: cell-based, Aliivibrio wodanis. The procedure: as §1
In experiment [11] the test system is A. wodanis strain 90/09/325 (5). In words: Antibiotic susceptibility testing on LB plates. Format: cell-based, Aliivibrio wodanis. To be noted: 12° C. for 2 days. As for the experimental part:
as §1

Experiment [12] concerns A. wodanis strain K7F1 150913. Format: cell-based, Aliivibrio wodanis. The settings on record: 12° C. for 2 days. As for the experimental part:
as §1

Experiment [13] has as its system A. wodanis strains. As to the kind of experiment: Antibiotic resistance test, summary for all strains. Format: cell-based, Aliivibrio wodanis. To be noted: the twelve strains used in this study. The procedure:
Next, we tested for resistance to antibiotics, four of which are commonly used in biotechnological applications, namely carbenicillin, kanamycin, tetracycline and chloramphenicol.
as §1

As for `CC1(C)S[C@@H]2[C@H](NC(=O)[C@H](N)c3ccccc3)C(=O)N2[C@H]1C(=O)O` [ampicillin], the “Resistance of A. wodanis strains (reported)” value (“Resistance … (reported)” for short) in [1] was “Resistance”.

As to `CN(C)[C@@H]1C(O)=C(C(N)=O)C(=O)[C@@]2(O)C(O)=C3C(=O)c4c(O)cccc4[C@@](C)(O)[C@H]3C[C@@H]12` [TET, Tetracycline], the “Antibiotics resistance TET 10 μg/mL” value in [2] (10 μg/mL), in experiment [3] (10 μg/mL), in [4] (10 μg/mL), in experiment [5] (10 μg/mL), in experiment [6] (10 μg/mL) and in experiment [7] (10 μg/mL) was 0 in each case. Moreover, the “Antibiotics resistance TET 10 μg/mL” value in experiment [8] (10 μg/mL), in experiment [9] (10 μg/mL), in experiment [10] (10 μg/mL), in experiment [11] (10 μg/mL) and in [12] (10 μg/mL) was 0 each time.

Regarding `CO[C@@]1(NC(=O)Cc2cccs2)C(=O)N2C(C(=O)O)=C(COC(N)=O)CS[C@@H]21` [cefoxitin], the “Resistance … (reported)” value in experiment [1] was “Resistance”.

Take `NC[C@H]1O[C@H](O[C@H]2[C@H](O)[C@@H](O[C@H]3O[C@H](CO)[C@@H](O)[C@H](N)[C@H]3O)[C@H](N)C[C@@H]2N)[C@H](O)[C@@H](O)[C@@H]1O` [KAN, Kanamycin]: the “Antibiotics resistance KAN 50 μg/mL” value in experiment [2] (50 μg/mL) worked out at 1; in [3] (50 μg/mL), 1; in [4] (50 μg/mL), 1; in experiment [5] (50 μg/mL), 1; in experiment [6] (50 μg/mL), 1; in experiment [7] (50 μg/mL) it was 0.5. Moreover, the “Antibiotics resistance KAN 50 μg/mL” value in experiment [8] (50 μg/mL), in experiment [9] (50 μg/mL), in experiment [10] (50 μg/mL), in [11] (50 μg/mL) and in [12] (50 μg/mL) was 1 throughout. In addition, the “Antibiotics resistance KAN 100 μg/mL” value in experiment [2] (100 μg/mL), in [3] (100 μg/mL), in experiment [4] (100 μg/mL), in experiment [5] (100 μg/mL), in [6] (100 μg/mL) and in experiment [7] (100 μg/mL) was 0.5 in each case. The “Antibiotics resistance KAN 100 μg/mL” value in experiment [8] (100 μg/mL), in experiment [9] (100 μg/mL), in experiment [10] (100 μg/mL), in experiment [11] (100 μg/mL) and in experiment [12] (100 μg/mL) was 0.5 throughout.

For `Cc1cc(NS(=O)(=O)c2ccc(N)cc2)no1` [sulfamethoxazole], the “Resistance … (reported)” value in experiment [1] is “Resistance”.

For the compound `O=C(N[C@H](CO)[C@H](O)c1ccc([N+](=O)[O-])cc1)C(Cl)Cl` [CHL, chloramphenicol], the “Antibiotics resistance CHL 2 μg/mL” value in experiment [2] (2 μg/mL), in experiment [3] (2 μg/mL), in [4] (2 μg/mL), in experiment [5] (2 μg/mL), in experiment [6] (2 μg/mL) and in experiment [7] (2 μg/mL) was 0 throughout. Also, the “Antibiotics resistance CHL 2 μg/mL” value in experiment [8] (2 μg/mL), in [9] (2 μg/mL), in experiment [10] (2 μg/mL), in [11] (2 μg/mL) and in experiment [12] (2 μg/mL) was 0 each time. Further, in [13], the “sensitivity / resistance to antibiotics” value is listed as “sensitive”.
